Test results as given in US12636342B2, “TARS derived from Akkermansia muciniphila or fragment thereof, and use thereof” (KOREA RESEARCH INSTITUTE OF BIOSCIENCE AND BIOTECHNOLOGY, priority 2020, dated 2026).

Tests used:
BMDMs = assay: AmTARS-stimulated BMDMs pre-treated with kinase/CREB inhibitors; format: cell-based, mouse; settings: for IL-10 production by AmTARS: BMDMs pre-treated 1 h with inhibitor (10 μM; 666-15 1 μM) before AmTARS 24 h; for macrophage polarization (CD206 positive) by AmTARS: BMDMs pre-treated 1 h with inhibitor before AmTARS 24 h
Description: (A and B) Analysis of key molecules that inhibit the MAPK and PI3K/AKT signaling pathways. IL-10 produced by BMDMs pre-treated with inhibitors of ERK (PD98059, […]), p38 (SB203580, […]), MSK1/2 (SB747651A, 10 μM), CREB (666-15, 1 μM), PI3K (Wortmannin, 10 μM), and AKT1/2 (AKT1/2, 10 μM) for 1 h before treatment with either PBS or AmTARS for 24 h (n=6 per group) (A). Flow cytometry analysis of M2 macrophages in BMDMs pre-treated for 1 h with the indicated kinase inhibitors, before treatment with either PBS or AmTARS for 24 h (n=3 per group) (B). (C and D) Western blot analysis of MAPK signaling molecules in lysates of BMDMs (C) or THP1 cells (D) treated for different times with 0.5 μM AmTARS. (E) Western blot analysis of lysates of BMDMs pre-treated with α-IgG (Isotype, 1 μg ml-1) or α-TLR2 (1 μg ml-1) for 1 h before treatment with PBS, AmTARS (0.5 μM), or Pam3 (0.5 μM) for 30 min. (F and G) Western blot analysis of PI3K/AKT signaling molecules in lysates of BMDMs (F) or THP1 cells (G) treated with 0.5 μM AmTARS. […] Activation of AKT, ERK, and CREB was measured by western blot analysis of lysates of THP1 cells pre-treated with α-IgG, α-TLR1, α-TLR2, or α-TLR6 (1 μg ml-1) for 1 h before treatment for 30 min with PBS or AmTARS (0.5 µM). […] P-values were calculated using an unpaired two-tailed Student's t-test. Data shown in (C-H) are representative and repeated at least three times.
To identify the signaling pathway triggered by AmTARS, we first evaluated kinases and CREB. IL-10 production and M2 polarization were measured in BMDMs treated with inhibitors of ERK (PD98059), p38 (SB203580), MSK1/2 (SB747651A), CREB (666-15), PI3K (Wortmannin) and AKT (AKT1/2) before subsequent stimulation with AmTARS.

[1] = system: mouse bone marrow-derived macrophages (BMDMs); assay: ELISA of immune cytokine secretion in LPS-treated BMDMs (inflammatory environment); format: cell-based
Description: To determine whether AmTARS affects immune cytokine secretion when cellular inflammation was induced, mouse bone marrow-derived macrophages BMDMs as mouse-derived immune cells and human macrophages THP1 as human-derived immune cells were cultured by way of the same method as in Example 2.
Specifically, the cultured BMDMs and THP1 were treated with lipopolysaccharide (LPS) to induce an inflammatory response and were simultaneously treated with AmTARS at 0.1 μM, 0.2 μM, and 0.5 μM for 24 h to obtain cell cultures. The obtained cell cultures were analyzed for immune cytokine secretion by way of the same method as in Example 2.
Next, BMDMs were treated with LPS to create an inflammatory environment by way of the same method as in Example 3, and then treated with each TARS (AmTARS, BfTARS, eTARS, and hTARS) to investigate the secretion of IL-10.
An inflammatory environment was created through LPS in BMDMs by way of the same method as in Example 3, and then the cells were treated with the four types of fragments, and the immune cytokine secretion was determined by ELISA.

[2] = system: mouse bone marrow-derived macrophages (BMDMs); assay: ELISA of immune cytokine secretion in BMDMs under normal conditions; format: cell-based; settings: normal (non-inflammatory) conditions, 24 h
Description: Specifically, mouse bone marrow-derived macrophages (BMDMs) as mouse-derived immune cells were extracted from the mouse thighbone and shinbone, and then cultured in DMEM containing 10% fetal bovine serum (FBS) and antibiotics. Human macrophages (THP1) as human-derived immune cells were cultured in RPMI media containing 10% FBS and antibiotics.
The cultured cells were treated with AmTARS at 0.1 μM, 0.2 μM, and 0.5 μM for 24 h to obtain cell cultures. For cell removal, the media were centrifuged at 500×g for 10 min to obtain supernatants, which were then analyzed using an ELISA set (mouse interleukin (IL)-6, mouse IL-10, mouse tumor necrosis factor (TNF)-α, human IL-6, human IL-10, human TNF-α; BD Biosciences) to investigate the secretion of mouse- and human-derived immune cytokines. […]

[3] = Aminoacylation reaction (malachite green phosphate assay); format: biochemical; settings: L-threonine, ATP, 30 min, free Pi at 620 nm
Description: TARS is an […] involved in protein synthesis, and the domain and site involved in its function are well known. The constructed deletion mutants were confirmed to have deletions of parts irrelevant to the function, but the aminoacylation reaction experiment was conducted to determine whether the deletion mutants performed the intrinsic functions thereof appropriately.
Specifically, a 2× reaction solution (100 mM Tris-HCl (pH 7.5), 20 mM MgCl2, 200 mM NaCl, 200 mM KCl, 2 mM DTT, 500 μM ATP, and 5 mM L-threonine) was prepared, and 25 μL of a reaction solution, 20 μL of distilled water, and 5 μL of protein were added to make a final 50 μL volume, followed by incubation for 30 min. Thereafter, a reaction was conducted using a malachite green phosphate assay kit (Bioassay Systems) for 30 min, and the free monophosphate group (Pi) was measured at a wavelength of 620 nm.

[4] = LPS-induced inflammatory environment, 24 h

Molecule	IL-10 production by AmTARS (BMDMs)	macrophage polarization (CD206 positive) by AmTARS (BMDMs)	secretion of IL-10 [1, 4]	further results
COc1cccc(-c2cc(=O)c3ccccc3o2)c1N [PD98059]	significant suppression	significant suppression	–	–
R2: Functional site 2 peptide, SEQ ID NO: 4, residues 290-312 of SEQ ID NO: 1 (KLSQEGASCAELFNGLATGTIEG; Functional region 2(290˜312))	–	–	increased	secretion of IL-6 ([1]; LPS, peptide 100 μM): reduced; secretion of IL-10 ([1]; LPS, peptide 100 μM): increased; secretion of IL-6 ([1]; LPS, peptide 300 μM): reduced; secretion of IL-10 ([1]; LPS, peptide 300 μM): increased; secretion of IL-6 [1, 4]: reduced
CCn1c(-c2nonc2N)nc2cncc(CNC3CCNCC3)c21 [SB747651A]	significant suppression	significant suppression	–	–
O=c1[nH]c2ccccc2n1C1CCN(Cc2ccc(-c3nc4cc5[nH]cnc5cc4nc3-c3ccccc3)cc2)CC1 [AKT1/2]	significant suppression	significant suppression	–	–
C[S+]([O-])c1ccc(-c2nc(-c3ccncc3)c(-c3ccc(F)cc3)[nH]2)cc1 (stereo not shown) [SB203580]	significant suppression	significant suppression	–	–
eTARS: TARS derived from E. coli (protein, 6xHis tag; misc_feature 1..1929 Escherichia coli TARS) MPVITLPDGSQRHYDHAVSPMDVALDIGPGLAKACIAGRVNGELVDACDLIENDAQLSIITAKDEEGLEIIRHSCAHLLGHAIKQLWPHTKMAIGPVIDNGFYYDVDLDRTLTQEDVEALEKRMHELAEKNYDVIKKKVSWHEARETFANRGESYKVSILDENIAHDDKPGLYFHEEYVDMCRGPHVPNMRFCHHFKLMKTAGAYWRGDSNNKMLQRIYGTAWADKKALNAYLQRLEEAAKRDHRKIGKQLDLYHMQEEAPGMVFWHNDGWTIFRELEVFVRSKLKEYQYQEVKGPFMMDRVLWEKTGHWDNYKDAMFTTSSENREYCIKPMNCPGHVQIFNQGLKSYRDLPLRMAEFGSCHRNEPSGSLHGLMRVRGFTQDDAHIFCTEEQIRDEVNGCIRLVYDMYSTFGFEKIVVKLSTRPEKRIGSDEMWDRAEADLAVALEENNIPFEYQLGEGAFYGPKIEFTLYDCLDRAWQCGTVQLDFSLPSRLSASYVGEDNERKVPVMIHRAILGSMERFIGILTEEFAGFFPTWLAPVQVVIMNITDSQSEYVNELTQKLSNAGIRVKADLRNEKIGFKIREHTLRRVPYMLVCGDKEVESGKVAVRTRRGKDLGSMDVNEVIEKLQQEIRSRSLKQLEE	–	–	not significantly increased	secretion/production of IL-10 [2]: no anti-inflammatory immune function
Akkermansia muciniphila-derived YARS (protein, 6xHis tag; misc_feature 1..1182 Akkermansia muciniphila YARS, Akkermansia muciniphila tyrosyl-tRNA synthetase, used as control) MTIDEQLDILMGGTAVVISREELKERLKLGRPLRVKLGVDPTAPDIHLGHTVAIEKLRQFQELGHQAVLLIGDFTATIGDPSGRSVTRPPLSREQVLENAETYTKQAFKILDRDKTEIVYNGDWFRKMTYEEVLKLNSRVTMQQMLAREDFKARVEGGKEVRLHEMQYPIMQGWDSVEIRADVELGGTDQLFNILVGRDLQKEEGMLPQIAMTMPLLEGLDGVRKMSKSYGNYVGVDESPEMMFGKMMSASDELMDRYYLVLLGEKRDMGLHPMEAKKLLAWKITARYHDSAAADAARSDWETRFSKRDLAAADLPEVEIASLPADMNALALVSFLFENVFQVKKSNGVLRKEHFTPGAIQLNDVKMTDPSAVLELAPGSILRLSKKHAVRFK	–	–	–	aminoacylation reaction / enzymatic activity [3]: no reaction
hTARS: TARS derived from Homo sapiens (protein, 6xHis tag; misc_feature 1..2175 Homo sapiens TARS) MFEEKASSPSGKMGGEEKPIGAGEEKQKEGGKKKNKEGSGDGGRAELNPWPEYIYTRLEMYNILKAEHDSILAEKAEKDSKPIKVTLPDGKQVDAESWKTTPYQIACGISQGLADNTVIAKVNNVVWDLDRPLEEDCTLELLKFEDEEAQAVYWHSSAHIMGEAMERVYGGCLCYGPPIENGFYYDMYLEEGGVSSNDFSSLEALCKKIIKEKQAFERLEVKKETLLAMFKYNKFKCRILNEKVNTPTTTVYRCGPLIDLCRGPHVRHTGKIKALKIHKNSSTYWEGKADMETLQRIYGISFPDPKMLKEWEKFQEEAKNRDHRKIGRDQELYFFHELSPGSCFFLPKGAYIYNALIEFIRSEYRKRGFQEVVTPNIFNSRLWMTSGHWQHYSENMFSFEVEKELFALKPMNCPGHCLMFDHRPRSWRELPLRLADFGVLHRNELSGALTGLTRVRRFQQDDAHIFCAMEQIEDEIKGCLDFLRTVYSVFGFSFKLNLSTRPEKFLGDIEVWDQAEKQLENSLNEFGEKWELNSGDGAFYGPKIDIQIKDAIGRYHQCATIQLDFQLPIRFNLTYVSHDGDDKKRPVIVHRAILGSVERMIAILTENYGGKWPFWLSPRQVMVVPVGPTCDEYAQKVRQQFHDAKFMADIDLDPGCTLNKKIRNAQLAQYNFILVVGEKEKISGTVNIRTRDNKVHGERTISETIERLQQLKEFRSKQAEEEF	–	–	not significantly increased	–
BfTARS: TARS derived from Bacteroides fragilis (protein, 6xHis tag; misc_feature 1..1941 Bacteroides fragilis TARS) MIKITFPDGSVREYNEGVNGLQIAESISSRLAQDVLACGVNGEIYDLGRPINEDASVVLYKWEDEQGKHAFWHTSAHLLAEALQELYPGIQFGIGPAIENGFYYDVDPGEAVIKEADLPAIEAKMAELVAKKEAVVRRDIAKGDALKMFGDRGETYKCELISELEDGHITTYTQGDFTDLCRGPHLMTTAPIKAIKLTSVAGAYWRGHEDRKMLTRIYGITFPKKKMLDEYLALMEEAKKRDHRKIGKEMQLFMFSDTVGKGLPMWLPKGTALRLRLQDFLRRIQTRYDYQEVITPPIGNKLLYVTSGHYAKYGKDAFQPIHTPEEGEEYFLKPMNCPHHCEIYKNFPRSYKDLPLRIAEFGTVCRYEQSGELHGLTRVRSFTQDDAHIFCRPDQVKGEFLRVMDIISIVFRSMDFDNFEAQISLRDKVNREKYIGSDENWEKAEQAIIEACEEKGLKAKIEYGEAAFYGPKLDFMVKDAIGRRWQLGTIQVDYNLPERFELEYMGSDNQKHRPVMIHRAPFGSMERFVAVLIEHTAGKFPLWLTPEQVVILPISEKFNEYAEKVKTYLKMKEIRAIVDDRNEKIGRKIRDNEMKRIPYMLIVGEKEAENGEVSVRRQGEGDKGTMKFEEFGEILNEEVQNMINKW	–	–	not significantly increased	–
